Values of other authors in patent US20070105756A1 (priority 2005, published 2007).

Tested on: sensitive individuals
Settings: oral route

Structure (SMILES): NCCc1c[nH]cn1 [histamine]
- histamine concentration known to be biologically active: > 5 nM
